Laboratory results reported in patent US8034826B2, “Cycloalkane[B]azaindole antagonists of prostaglandin D2 receptors” (Panmira Pharmaceuticals, LLC, priority 2008, dated 2011).

How the values were obtained:
[1] = target: T1, human DP2 receptor (Homo sapiens, UniProt Q9Y5Y4); test: DP2/CRTH2 radioligand binding assay using [3H]PGD2; settings: membranes of HEK293 cells expressing recombinant human DP2, 1 nM [3H]PGD2; read-out: hDP2
T1 construct: expressed in transfected cells
T1 sequence (Q9Y5Y4 1-395): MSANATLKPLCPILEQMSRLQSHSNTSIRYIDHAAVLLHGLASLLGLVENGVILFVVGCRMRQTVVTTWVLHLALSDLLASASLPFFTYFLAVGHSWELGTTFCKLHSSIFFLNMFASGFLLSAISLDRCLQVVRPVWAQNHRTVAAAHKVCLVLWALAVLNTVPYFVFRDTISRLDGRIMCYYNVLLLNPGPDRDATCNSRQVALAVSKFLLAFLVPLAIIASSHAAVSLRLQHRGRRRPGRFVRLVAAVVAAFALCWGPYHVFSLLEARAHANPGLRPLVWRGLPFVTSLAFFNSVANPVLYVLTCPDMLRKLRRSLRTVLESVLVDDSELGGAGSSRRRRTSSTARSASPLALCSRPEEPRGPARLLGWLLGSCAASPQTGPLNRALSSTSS
Description: The ability of a compound to bind to the human DP2 receptor is assessed via a radioligand binding assay using [^3H]PGD2. HEK293 cells stably expressing recombinant human DP2 are resuspended in 10 mM Hepes, 7.4 containing 1 mM DTT, lysed and centrifuged at 75,000×g to pellet the membranes. The membranes are resuspended in 10 mM Hepes, 7.4 containing 1 mM DTT and 10% glycerol to approximately 5 mg protein/ml. Membranes (2-10 μg protein/well) are incubated in 96-well plates with 1 nM [^3H]PGD2 and test compound in Assay Buffer (50 mM Hepes, 10 mM MnCl2, 1 mM EDTA, plus or minus 0.2% human serum albumin, pH 7.4) for 60 minutes at room temperature. The reactions are terminated by rapid filtration through Whatman GF/C glass fibre filter plates. The filter plates were pre-soaked in 0.33% polyethylenimine for 30 minutes at room temperature then washed in Wash Buffer (50 mM Hepes, 0.5 M NaCl pH 7.4) prior to harvesting. After harvesting, the filter plates are washed 3 times with 1 ml cold Wash Buffer then dried. Scintillant is then added to the plates and the radioactivity retained on the filters is determined on a Packard TopCount (Perkin Elmer). Specific binding is determined as total radioactive binding minus non-specific binding in the presence of 10 μM PGD2. IC50s were determined using GraphPad prism analysis of drug titration curves.

[2] = Plasma concentrations of the compound in mice of the allergic rhinitis model; type: in vivo; settings: female, BALB/c, mouse, 10 mg/kg as the sodium salt, oral
Description: The compounds ability to inhibit allergen-induced sneezing and nasal rubbing is assessed using a mouse model of allergic rhinitis. Methods were adapted from those detailed in Nakaya, M., et al. 2006, Laboratory Investigation, 86:917-926. Female BALB/c mice (20-25 g) are immunized by an intraperitoneal injection (i.p.) of 10 μg ovalbumin (OVA) complexed with alum in a volume 0.2 mL on days 0 and 7. Fourteen days later (day 21) mice are challenged intranasally with 20 μl of a 10 mg/mL solution of OVA. The challenge period occurs daily from days 21 to day 23. Mice (5-7/group) are randomly assigned to receive either compound or vehicle and are treated by oral gavage 1 hour prior to OVA challenge. The number of sneezes and nasal rubs are counted by an independent blinded observe during a period of 8 minutes immediately following OVA challenge on days 21, 23 and […]. A significant increase in allergen-induced sneezing and nasal rubbing occurs over the 3-day challenge period. Inhibition of this effect by select compounds is determined statistically using Graphpad prism.

SMILES	IC50 [1] [nM]	Cmax [2] [nM]	concentration at 8 h ([2]; at 8 hours, read-out: Plasma Cmin at 8 hours) [nM]
O=C(O)CCn1c2c(c3ccccc31)C[C@H](NS(=O)(=O)c1ccc(F)cc1)CC2 [Ramatroban]	> 100	–	–
CN(C1CCc2c(c3ncccc3n2CC(=O)O)C1)S(=O)(=O)c1ccc(F)cc1 (racemic) [Compound 2, {8-[(4-fluoro-benzenesulfonyl)-methyl-amino]-6,7,8,9-tetrahydro-pyrido[3,2-b]indol-5-yl}-acetic acid]	–	770	120
